Tested on: not listed separately
Assay: Acute toxicity (mice - LD 50)
Conditions: mouse, in vivo, ip

Going from `CN1CCCC12SC(=O)c1ccccc12` (stereo not shown) [Code number 1] to `CN1CCCCC12SC(=O)c1ccccc12` (stereo not shown) [compound 2], the LD50 rises from 400 mg/kg to greater than 400 mg/kg.

`CCCN1CCCC12SC(=O)c1ccccc12` (stereo not shown) [Code number 4] and `CCN1CCCC12SC(=O)c1ccccc12` (stereo not shown) [compound 3] cannot be ordered by LD50: greater than 400 mg/kg for the first, greater than 400 mg/kg for the second.

`CN1CCCC12SC(=O)c1ccc(Cl)cc12` (stereo not shown) [compound 5] and `CN1CCCC12SC(=O)c1cc(Cl)ccc12` (stereo not shown) [compound 6] cannot be ordered by LD50: greater than 400 mg/kg for the first, greater than 400 mg/kg for the second.

`CCN1CCCC12SC(=O)c1cc(Cl)ccc12` (stereo not shown) [compound 7] and `CC(C)CN1CCCC12SC(=O)c1cc(Cl)ccc12` (stereo not shown) [compound 36] cannot be ordered by LD50: greater than 400 mg/kg for the first, greater than 400 mg/kg for the second.

`COc1ccc2c(c1)C1(CCCN1C)SC2=O` (stereo not shown) [compound 8] and `COc1ccc2c(c1)C(=O)SC21CCCN1C` (stereo not shown) [compound 9] cannot be ordered by LD50: greater than 400 mg/kg for the first, greater than 400 mg/kg for the second.

`COc1cc2c(cc1OC)C1(CCCN1C)SC2=O` (stereo not shown) [compound 10] and `CN1CCCC12SC(=O)c1cc(F)ccc12` (stereo not shown) [compound 16] cannot be ordered by LD50: greater than 400 mg/kg for the first, greater than 400 mg/kg for the second.

Compared with `CN1CCCC12OCc1ccccc12` (stereo not shown) [compound 21], `CN1CCCC12OCc1cc(Cl)ccc12` (stereo not shown) [compound 43] is higher in LD50: 275 mg/kg for the first, greater than 400 mg/kg for the second.

Going from `CN1CCCC12SCc1ccccc12` (stereo not shown) [compound 22] to `CN1CCCC12SCc1cc(Cl)ccc12` (stereo not shown) [compound 45], the LD50 rises from 290 mg/kg to greater than 400 mg/kg.

`O=C1OC2(CCCC2)c2ccccc21` [compound 23] and `S=C1OC2(CCCC2)c2ccccc21` [compound 24] cannot be ordered by LD50: greater than 400 mg/kg for the first, greater than 400 mg/kg for the second.

`O=C1SC2(CCCN2c2ccccc2)c2ccccc21` (stereo not shown) [compound 37] and `O=C1SC2(CCCN2c2ccccc2)c2ccc(Cl)cc21` (stereo not shown) [compound 38] cannot be ordered by LD50: greater than 400 mg/kg for the first, greater than 400 mg/kg for the second.

`O=C1SC2(CCCN2c2ccc(Cl)cc2)c2ccccc21` (stereo not shown) [compound 39] and `O=C1SC2(CCCN2c2ccc(Cl)cc2)c2ccc(Cl)cc21` (stereo not shown) [compound 40] cannot be ordered by LD50: greater than 400 mg/kg for the first, greater than 400 mg/kg for the second.

`CN1CCCC12SC(=O)c1cc(Br)ccc12` (stereo not shown) [compound 41] and `CN1CCCC12SC(=O)c1cc3ccccc3cc12` (stereo not shown) [compound 42] cannot be ordered by LD50: greater than 400 mg/kg for the first, greater than 400 mg/kg for the second.

`CN1CCCC12OC(c1ccccc1)c1ccccc12` (stereo not shown) [compound 44] gave an LD50 greater than 400 mg/kg.

Same assay, conditions: mouse, in vivo, ip, at 400 mg/kg, read-out: Acute toxicity, % at 400 (mg/kg/i.p.), printed in the LD 50 column

Going from `CCCN1CCCC12SC(=O)c1cc(Cl)ccc12` (stereo not shown) [compound 34] to `CCCCN1CCCC12SC(=O)c1cc(Cl)ccc12` (stereo not shown) [compound 35], the mortality rises from 40% to 60%.

Tested on: mice
Assay: Protection against death induced by intravenous bicuculline (anti-convulsion activity)
Assay type: in vivo
Conditions: Mus musculus, ip, intravenous injection of 0.7 mg/kg of bicuculline, read-out: Efficient doses 50 - ED 50 protecting against death induced by Bicuculline

Going from `CN1CCCC12SC(=O)c1ccccc12` (stereo not shown) [Code number 1] to `CN1CCCCC12SC(=O)c1ccccc12` (stereo not shown) [compound 2], the ED50 rises from 7 mg/kg to 100 mg/kg (14-fold).

Compared with `CCCN1CCCC12SC(=O)c1ccccc12` (stereo not shown) [Code number 4], `CCN1CCCC12SC(=O)c1ccccc12` (stereo not shown) [compound 3] is 1.8-fold lower in ED50: 47 mg/kg for the first, 26 mg/kg for the second.

First: CN1CCCC12SC(=O)c1ccc(Cl)cc12 (stereo not shown) [compound 5]
Second: CN1CCCC12SC(=O)c1cc(Cl)ccc12 (stereo not shown) [compound 6]
The ED50 of the first is 10-fold higher: 80 mg/kg for the first, 8 mg/kg for the second.

`CCN1CCCC12SC(=O)c1cc(Cl)ccc12` (stereo not shown) [compound 7] and `CCCN1CCCC12SC(=O)c1cc(Cl)ccc12` (stereo not shown) [compound 34] are within 1.5-fold of each other in ED50: 10 mg/kg for the first, 11 mg/kg for the second.

Compared with `COc1ccc2c(c1)C1(CCCN1C)SC2=O` (stereo not shown) [compound 8], `COc1ccc2c(c1)C(=O)SC21CCCN1C` (stereo not shown) [compound 9] is 2.5-fold lower in ED50: 100 mg/kg for the first, 40 mg/kg for the second.

`COc1cc2c(cc1OC)C1(CCCN1C)SC2=O` (stereo not shown) [compound 10] and `CN1CCCC12SC(=O)c1cc(F)ccc12` (stereo not shown) [compound 16] are within 1.5-fold of each other in ED50: 30 mg/kg for the first, 25 mg/kg for the second.

Compared with `CN1CCCC12OCc1ccccc12` (stereo not shown) [compound 21], `CN1CCCC12OCc1cc(Cl)ccc12` (stereo not shown) [compound 43] is 1.8-fold higher in ED50: 15 mg/kg for the first, 27.5 mg/kg for the second.

Going from `CN1CCCC12SCc1ccccc12` (stereo not shown) [compound 22] to `CN1CCCC12SCc1cc(Cl)ccc12` (stereo not shown) [compound 45], the ED50 falls from 34 mg/kg to 15 mg/kg (2.3-fold).

`O=C1OC2(CCCC2)c2ccccc21` [compound 23] and `S=C1OC2(CCCC2)c2ccccc21` [compound 24] are within 1.5-fold of each other in ED50: 76 mg/kg for the first, 63 mg/kg for the second.

`CCCCN1CCCC12SC(=O)c1cc(Cl)ccc12` (stereo not shown) [compound 35] and `CC(C)CN1CCCC12SC(=O)c1cc(Cl)ccc12` (stereo not shown) [compound 36] are within 1.5-fold of each other in ED50: 26 mg/kg for the first, 30 mg/kg for the second.

Compared with `O=C1SC2(CCCN2c2ccccc2)c2ccccc21` (stereo not shown) [compound 37], `O=C1SC2(CCCN2c2ccccc2)c2ccc(Cl)cc21` (stereo not shown) [compound 38] is 1.8-fold lower in ED50: 100 mg/kg for the first, 56 mg/kg for the second.

First: O=C1SC2(CCCN2c2ccc(Cl)cc2)c2ccccc21 (stereo not shown) [compound 39]
Second: O=C1SC2(CCCN2c2ccc(Cl)cc2)c2ccc(Cl)cc21 (stereo not shown) [compound 40]
The ED50 of the first is 1.6-fold lower: 62 mg/kg for the first, 100 mg/kg for the second.

`CN1CCCC12SC(=O)c1cc(Br)ccc12` (stereo not shown) [compound 41] and `CN1CCCC12SC(=O)c1cc3ccccc3cc12` (stereo not shown) [compound 42] are within 1.5-fold of each other in ED50: 29.5 mg/kg for the first, 34 mg/kg for the second.

With `CN1CCCC12OC(c1ccccc1)c1ccccc12` (stereo not shown) [compound 44] the ED50 was 45 mg/kg.

Tested on: mice
Assay: Phenylbenzoquinone test (analgesic activity)
Assay type: in vivo
Conditions: Mus musculus, ip, read-out: Phenylbenzoquinone test - ED 50
Excerpt: The analgesic activity was shown up on mice by interperitoneal injection of the compounds of formula (I) and their salts using the phenylbenzoquinone test according to the method described by E. SIEGMUND in Proced. Soc. Exp. Biol. and Med. 95, 729 (1957).

Going from `CN1CCCC12SC(=O)c1ccccc12` (stereo not shown) [Code number 1] to `CN1CCCCC12SC(=O)c1ccccc12` (stereo not shown) [compound 2], the ED50 rises from 30 mg/kg to 50 mg/kg (1.7-fold).

Compared with `CCCN1CCCC12SC(=O)c1ccccc12` (stereo not shown) [Code number 4], `CN1CCCC12OCc1ccccc12` (stereo not shown) [compound 21] is 2.9-fold higher in ED50: 35 mg/kg for the first, 100 mg/kg for the second.

`S=C1OC2(CCCC2)c2ccccc21` [compound 24] and `CN1CCCC12OC(c1ccccc1)c1ccccc12` (stereo not shown) [compound 44] are within 1.5-fold of each other in ED50: 46 mg/kg for the first, 64 mg/kg for the second.

`CN1CCCC12OCc1cc(Cl)ccc12` (stereo not shown) [compound 43] showed an ED50 of 30 mg/kg.

From patent US4395416A, “1-Spiro isobenzofuranic and 1-spiro isobenzothiophenic derivatives the process for preparing the same and their use in therapeutics” (Delalande S.A., priority 1981, dated 1983)
